Results taken from patent publication US9155778B2, “Tripeptides that down regulate the activity of plasma membrane transporters including sodium-D-glucose cotransporter SgIt1” (JULIUS-MAXMILLIANS-UNIVERSITAT WURZBURG, priority 2005, dated 2015).
Where two headings read alike, the source gives them in different places. Peptide text beside a SMILES is read from it.

Columns and labels:
[1] = biological target: T1, hPEPT1 (Homo sapiens, UniProt P46059); experiment: Electrogenic peptide transport by hPEPT1 in oocytes, two-electrode voltage clamp; format: cell-based; details: 5 mM peptide
T1 construct: expressed in transfected cells; host or cells: Xenopus laevis oocytes (30 ng cRNA per oocyte)
T1 sequence (P46059 1-708): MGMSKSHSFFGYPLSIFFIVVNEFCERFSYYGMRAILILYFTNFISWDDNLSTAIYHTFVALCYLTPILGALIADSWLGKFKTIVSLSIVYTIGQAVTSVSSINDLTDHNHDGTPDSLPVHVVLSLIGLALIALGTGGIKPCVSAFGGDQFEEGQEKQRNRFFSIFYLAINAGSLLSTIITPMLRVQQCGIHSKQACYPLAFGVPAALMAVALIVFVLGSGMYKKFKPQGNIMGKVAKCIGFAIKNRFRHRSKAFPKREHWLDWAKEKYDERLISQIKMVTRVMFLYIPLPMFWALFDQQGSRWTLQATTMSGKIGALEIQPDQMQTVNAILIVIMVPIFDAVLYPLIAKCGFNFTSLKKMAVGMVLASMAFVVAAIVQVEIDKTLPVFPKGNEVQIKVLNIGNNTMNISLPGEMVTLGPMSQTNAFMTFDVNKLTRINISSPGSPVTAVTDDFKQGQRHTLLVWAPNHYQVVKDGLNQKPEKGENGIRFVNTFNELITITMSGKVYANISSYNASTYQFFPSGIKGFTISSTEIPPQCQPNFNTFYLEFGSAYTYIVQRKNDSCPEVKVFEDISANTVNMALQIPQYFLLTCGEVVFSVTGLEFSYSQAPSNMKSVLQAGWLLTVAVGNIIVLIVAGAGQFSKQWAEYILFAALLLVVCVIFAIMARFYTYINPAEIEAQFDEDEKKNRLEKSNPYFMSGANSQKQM
Procedure: (§1) The oocytes were incubated for three days at 16° C. in ORi buffer (in mM: 5 HEPES-Tris, pH 7.4, 100 NaCl, 3 KCl, 2 CaCl2, and 1 MgCl2). […] The oocytes were superfused with Ori buffer titrated to pH 6.5, the membrane potential of the oocytes was clamped to −40 mV, and inward current induced by superfusion with Ori buffer (pH 6.5) containing 5 mM of a control dipeptide or 5 mM of the tested tripeptide was measured. • (D) Expression and Purification of hRS1

[2] = biological target: T2, hSGLT1 (Homo sapiens, UniProt P13866); experiment: hSGLT1 expressed [14C]AMG uptake in Xenopus oocytes after injection of hRS1 protein or peptides; format: cell-based
T2 construct: expressed in transfected cells; host or cells: Xenopus laevis oocytes (cRNA injection)
T2 sequence (P13866 1-664): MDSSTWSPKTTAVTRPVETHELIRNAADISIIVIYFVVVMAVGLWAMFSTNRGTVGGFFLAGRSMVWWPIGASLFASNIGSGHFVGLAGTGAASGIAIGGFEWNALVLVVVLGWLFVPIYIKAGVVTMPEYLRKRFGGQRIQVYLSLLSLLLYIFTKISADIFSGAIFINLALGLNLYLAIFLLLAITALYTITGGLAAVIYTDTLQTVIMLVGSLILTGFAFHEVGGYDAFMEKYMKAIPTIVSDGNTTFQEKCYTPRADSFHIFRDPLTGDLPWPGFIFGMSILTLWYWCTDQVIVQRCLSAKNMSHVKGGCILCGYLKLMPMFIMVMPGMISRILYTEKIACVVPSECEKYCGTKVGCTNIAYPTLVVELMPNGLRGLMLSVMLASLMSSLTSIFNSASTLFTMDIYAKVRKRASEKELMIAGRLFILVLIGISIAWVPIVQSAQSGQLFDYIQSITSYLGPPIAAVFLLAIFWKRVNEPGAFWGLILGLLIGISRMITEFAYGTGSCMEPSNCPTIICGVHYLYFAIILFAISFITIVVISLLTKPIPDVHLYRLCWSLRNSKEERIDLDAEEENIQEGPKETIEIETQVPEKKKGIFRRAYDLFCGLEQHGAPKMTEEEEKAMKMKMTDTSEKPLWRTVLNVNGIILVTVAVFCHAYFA

[3] = biological target: T3, rbSGLT1 (Oryctolagus cuniculus, UniProt P11170); experiment: rbSGLT1 expressed [14C]AMG uptake in oocytes after peptide injection; format: cell-based, rabbit; details: 50 nl containing 3 mM of each peptide, 30 min, 50 μM [14C]AMG; compared with hSGLT1
T3 construct: expressed in transfected cells; host or cells: Xenopus laevis oocytes (cRNA injection)
T3 sequence (P11170 1-662): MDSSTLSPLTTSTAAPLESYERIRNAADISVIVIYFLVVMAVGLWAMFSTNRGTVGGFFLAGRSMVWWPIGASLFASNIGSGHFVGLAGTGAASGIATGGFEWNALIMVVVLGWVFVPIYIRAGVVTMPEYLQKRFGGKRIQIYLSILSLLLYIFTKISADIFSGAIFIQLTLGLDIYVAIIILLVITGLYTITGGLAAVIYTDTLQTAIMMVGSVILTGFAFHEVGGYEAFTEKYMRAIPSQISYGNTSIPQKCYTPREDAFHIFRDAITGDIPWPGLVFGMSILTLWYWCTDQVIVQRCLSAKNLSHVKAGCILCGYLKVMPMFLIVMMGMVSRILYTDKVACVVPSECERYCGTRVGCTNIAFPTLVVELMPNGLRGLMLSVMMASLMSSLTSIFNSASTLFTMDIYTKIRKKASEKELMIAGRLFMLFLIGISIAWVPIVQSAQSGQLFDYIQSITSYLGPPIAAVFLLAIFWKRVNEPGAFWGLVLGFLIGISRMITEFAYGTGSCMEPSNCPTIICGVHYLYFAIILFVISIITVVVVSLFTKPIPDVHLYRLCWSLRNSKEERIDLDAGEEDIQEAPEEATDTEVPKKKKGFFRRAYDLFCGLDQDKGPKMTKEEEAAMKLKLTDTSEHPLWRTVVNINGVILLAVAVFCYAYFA
Procedure: as §1
To develop drugs on the basis of the identified peptides animal models are required.

[4] = system: RS1; experiment: Immunostaining of RS1 at the TGN in LLC-PK1 cells after brefeldin A; format: cell-based; details: 2 μg/ml brefeldin A, 1 or 5 min, subconfluent LLC-PK1 cells
Procedure: For immunostaining, LLC-PK1 cells were grown on coverslips to about 50% confluence. The cells were washed twice with washing buffer (5 mM 3-(N-morpholino)propanesulfonic acid-NaOH, pH 7.4, 100 mM NaCl, 3 mM KCl, 2 mM CaCl2, and 1 mM MgCl2), fixed for 12 min with 4% (w/v) paraformaldehyde diluted in washing buffer, and washed twice again. Free aldehyde groups were quenched by 10 min incubation with washing buffer containing 40 mM glycine. For immunoreactions, washed cells were permeabilized by a 10-min incubation with washing buffer containing 0.25% (w/v) TritonX-114, and incubated over night at 4° C. with primary antibodies diluted in washing buffer. The dilutions of primary antibodies were as follows: rabbit-anti-RS1-Ab 1:50 (Valentin (2000), Biochim. Biophys. Acta, 1468, 367-380); QIS30 directed against SGLT1 1:400 (Kipp (2003), Am. J. Physiol., 285, C737-C749), sheep-anti-TGN46 1:125 (from Diagnostic International, Schriesheim, Germany). […]
The specificity of the antibodies was controlled as follows. […] In controls, no cross-reactivity of the used secondary antibodies with false primary antibodies used in the same experiment was detected. […]

[5] = biological target: T4, human organic cation transporter 1 (hOCT1) (Homo sapiens, UniProt O15245); experiment: [14C]TEA uptake expressed by hOCT1 in oocytes; format: cell-based; details: intracellular AMG concentration of 0.1 mM
T4 construct: expressed in transfected cells; host or cells: oocytes
T4 sequence (O15245 1-554): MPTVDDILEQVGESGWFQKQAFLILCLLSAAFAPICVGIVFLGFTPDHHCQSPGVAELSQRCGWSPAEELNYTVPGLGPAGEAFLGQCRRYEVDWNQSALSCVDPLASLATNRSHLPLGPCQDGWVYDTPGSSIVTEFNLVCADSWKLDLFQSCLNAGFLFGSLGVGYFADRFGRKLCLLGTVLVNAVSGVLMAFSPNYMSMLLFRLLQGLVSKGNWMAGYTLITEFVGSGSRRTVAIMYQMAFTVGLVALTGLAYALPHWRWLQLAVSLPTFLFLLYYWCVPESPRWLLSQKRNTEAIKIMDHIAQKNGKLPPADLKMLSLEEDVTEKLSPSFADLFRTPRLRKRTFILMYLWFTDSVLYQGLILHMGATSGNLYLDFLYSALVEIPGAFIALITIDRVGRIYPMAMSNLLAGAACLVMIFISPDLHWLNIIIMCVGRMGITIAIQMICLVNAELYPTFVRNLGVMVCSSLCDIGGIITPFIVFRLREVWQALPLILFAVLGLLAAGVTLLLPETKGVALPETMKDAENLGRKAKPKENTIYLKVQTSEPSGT
Procedure: Corresponding measurements were performed in the presence of intracellular AMG concentrations of 0.1 mM, <0.01 mM or 10 mM.

In the case of `NCC(=O)N[C@@H](CCC(N)=O)C(=O)O` [GC, glycylglutamine, reference compound] (H-Gly-Gln-OH), the “inward current induced in oocytes expressing hPEPT1” value ([1]; pH 6.5, clamped to −40 mV) is reported as “significant inward currents” and the “inward current in control oocytes not injected with hPEP1-cRNA” value ([1]; pH 6.5, data not shown) is reported as “no inward currents”.

In the case of “IKPSDSDRIEP [Isoleucine-Lysine-Proline-Serine-Aspartic acid-Serine-Aspartic acid -Arginine-Isoleucine-Glutamic acid-Proline]”, the “inhibition of glucose uptake expressed by hSGLT1” value [2] is reported as “about 50%” and the “effect on glucose uptake expressed by rbSGLT1” value [3] is reported as “same effect”.

“SDSDRIEP [Serine-Aspartic acid-Serine-Aspartic acid-Arginine-Isoleucine-Glutamic acid-Proline]” was tested, and the “inhibition of glucose uptake expressed by hSGLT1” value [2] was “about 50%”, the “inhibition of hSGLT1 expressed AMG uptake after stimulation of protein kinase C” value [2] was “not changed” and the “inhibition of hSGLT1 expressed AMG uptake with coexpressed dominant negative mutant of dynamin I” value [2] was “not changed”. The “inhibitory effect on expression of hSGLT1 when the exocytotic pathway is blocked” value [2] was “could be prevented”.

`C[C@H]1CCC/C=C/[C@@H]2C[C@H](O)C[C@H]2[C@H](O)/C=C/C(=O)O1` [brefeldin A] was tested, and the “RS1 immunoreactivity at the TGN / perinuclear compartment” value [4] was “released from the TGN”.

SVQPCQENQ [reference compound] was tested, and the “inhibition of [14C]AMG uptake by injected peptide” value ([2]; 50 nl/oocyte containing 1.5 mM peptide, 30 min before uptake) was “No inhibition”.

B1: hRS1 protein: purified human regulatory protein RS1 with six C-terminal histidines, SEQ ID NO: 2 (protein, listed as Homo sapiens)
chain: MSSLPTSDGFNHPARSSGQSPDVGNPMSLARSVSASVCPIKPSDSDRIEPKAVKALKASAEFQLNSEKKEHLSLQDLSDHASSADHAPTDQSPAMPMQNSSEEITVAGNLEKSAERSTQGLKFHLHTRQEASLSVTSTRMHEPQMFLGEKDWHPENQNLSQVSDPQQHEEPGNEQYEVAQQKASHDQEYLCNIGDLELPEERQQNQHKIVDLEATMKGNGLPQNVDPPSAKKSIPSSECSGCSNSETFMEIDTAQQSLVTLLNSTGRQNANVKNIGALDLTLDNPLMEVETSKCNPSSEILNDSISTQDLQPPETNVEIPGTNKEYGHYSSPSLCGSCQPSVESAEESCPSITAALKELHELLVVSSKPASENTSEEVICQSETIAEGQTSIKDLSERWTQNEHLTQNEQCPQVSFHQAISVSVETEKLTGTSSDTGREAVENVNFRSLGDGLSTDKEGVPKSRESINKNRSVTVTSAKTSNQLHCTLGVEISPKLLAGEEDALNQTSEQTKSLSSNFILVKDLGQGIQNSVTDRPETRENVCPDASRPLLEYEPPTSHPSSSPAILPPLIFPATDIDRILRAGFTLQEALGALHRVGGNADLALLVLLAKNIVVPT
modifications: C-terminal His6 tag
For B1, the “inhibitory effect on expression of hSGLT1 when the exocytotic pathway is blocked” value [2] was “could be prevented”, the “inhibition of AMG uptake by injected hRS1 protein in the presence of BTXB” value ([2]; 5 ng hRS1 plus 1.7 ng BTXB, 30 min) was “no inhibition” and the “inhibition of hSGLT1 expressed AMG uptake after stimulation of protein kinase C” value ([2]; PKC stimulated with DOG or PMA) was “increased”. The “inhibition of hSGLT1 expressed AMG uptake with coexpressed dominant negative mutant of dynamin I” value ([2]; dominant negative dynamin I coexpressed) was “reduced”, the “inhibition of hSGLT1 expressed AMG uptake when endocytosis is inhibited” value ([2]; with clorpromazin, imipramin or filipin, data not shown) was “unchanged” and the “hOCT1 expressed [14C]TEA uptake after injection” value [5] was “appears to be inhibited”.
